Results reported in article PMC11678782, “The Antioxidant and Anti-Inflammatory Activities of the Methanolic Extract, Fractions, and Isolated Compounds from Eriosema montanum Baker f. (Fabaceae)” (Molecules, 2024).
Converted amounts (≈) assume the structure as drawn.

Experiments:
[1] = system: LPS-activated J774.A1 cells; set-up: method as in PMID 17637182; conditions: cited from earlier work
[2] = DPPH radical scavenging assay; conditions: 30 min, 517 nm
Experimental: (§1) Three in vitro antioxidant assays, namely, 2,2′-azinobis-(3-ethylbenzothiazoline-6-sulfonic acid (ABTS), 2,2′-diphenyl-1-picrylhydrazyl (DPPH), and ferric ion reducing antioxidant power (FRAP), were used to determine the antioxidant activity according to methods previously reported. Ascorbic acid (0 to 200 μg/mL) was used as positive control in these experiments, and Formula (1) below allowed us to evaluate the percentage of radical scavenging capacity. The inhibitory concentration (IC50) values were evaluated by plotting a nonlinear graph of percentage radical scavenging capacity versus logarithm of tested concentrations. Scavenging capacity (%) = [(A0 − A1)/A0] × 100(1) where A0 is absorbance of negative control, and A1 is absorbance of extract with ABTS^•+ radical cation.
To be able to determine the DPPH^• scavenging capacity of EMME, we performed a serial dilution of 40 μL of the sample (1 mg/mL) with methanol on a 96-well microtiter plate, with 160 μL of solution of DPPH^• thereafter (25 μg/mL). The incubation at 25 °C in the dark was performed after 30 min, with the absorbance values measured at 517 nm on a SpectraMax iD3 multi-mode microplate against a blank (extract plus methanol without DPPH^•). […]. Methanol with DPPH^• served as the negative control. Using Formula (1), the DPPH scavenging capability was calculated at the measured concentrations above, and as previously enumerated, the IC50 values were also calculated, as indicated in the previously described procedure.
(§2) The IC50 values were calculated for each biological experiment using the nonlinear regression curve of the % inhibitory activity versus the logarithm (log10) of the various tested concentrations using GraphPad Prism 6.0 software (GraphPad Software, Inc., San Diego, CA, USA). The data are shown as mean ⁱ SEM (standard error of the mean) values, and all biological experiments were conducted in triplicate (n = 3). The statistical analysis was conducted using GraphPad Prism 6.0 software (GraphPad Software, Inc., San Diego, CA, USA). One-way analysis of variance (ANOVA) was used to compare the data across the tested samples and/or controls, and Student–Newman–Keuls or Dunnett’s tests were then performed. A p-value of less than 0.05 indicated a significant difference in the results.

[3] = ABTS radical scavenging assay; conditions: 5 min, 734 nm
Experimental: as §1
Specifically, 2.45 mM of potassium persulfate and 7 mM of ABTS solution were dissolved in methanol and combined to create the ABTS^•+ radical cation, which was stored at 25 °C for a minimum of 16 h. At 734 nm, the absorbance of the generated ABTS^•+ was measured using a SpectraMax iD3 multi-mode microplate reader (Molecular Devices, San Jose, CA, USA) and calibrated to 0.70 ± 0.02. After carefully diluting 40 μL of EMME (1 mg/mL) with methanol and adding 160 μL of (ABTS^•+) radical cation, the 96-well microtiter plate was left to sit at 25 °C in the dark for five minutes. Using a SpectraMax iD3 multi-mode microplate reader, the absorbance values were measured at 734 nm against the blank (extract plus methanol without ABTS^•+). A nonlinear curve representing the percentage of ABTS^•+ scavenging capacity vs. a logarithm of tested concentrations was then plotted to determine the inhibitory concentration (IC50) values.
as §2

[4] = Ferric reducing antioxidant power (FRAP) assay; conditions: relative to 200 µg/mL gallic acid, 700 nm
Experimental: as §1
The generally used and almost standard method for performing the FRAP test is that developed by Benzie and Strain [15]. Indeed, the antioxidant power is determined in a colorimetric reaction linked to redox in which an intense blue-colored ferroustripyridyltriazine (Fe^2+-TPTZ) complex is obtained via reduction at a low pH of ferrictripyridyltriazine (Fe^3+-TPTZ). The incubation of a quantity of 50 μL of EMME (1.56 to 200 μg/mL) or 200 μg/mL of gallic acid (Merck, Lethabong, South Africa) on a 96-well plate was carried out with 50 μL of 1% potassium ferricyanide (prepared in 0.2 M of sodium phosphate buffer, pH 6.6) for 30 min at 50 °C. Then, 50 μL of 10% trichloroacetic acid (TCA), 40 μL of distilled water, and 10 μL of 0.1% ferric chloride were added, respectively. The absorbance values were recorded on a blank (extract plus sodium phosphate buffer) at 700 nm on a SpectraMax iD3 multi-mode microplate reader (Molecular Devices, San Jose, CA, USA); the FRAP activity was indicated as inhibition percentage of 200 μg/mL of gallic acid.
as §2

[5] = system: LPS-stimulated RAW 264.7 cells; assay: ROS production in LPS-stimulated RAW 264.7 cells (DCFH-DA); type: cell-based, murine; conditions: 25, 50, 100 µg/mL, 2 h pre-treatment, 200 ng/mL LPS 24 h
Experimental: For ROS production inhibition, on a black/clear bottom 96-well plate, RAW 264.7 cells were seeded at a density of 10,000 cells per well. The cells were then pre-treated with non-toxic quantities of EMME and genistin (5) at 25, 50, and 100 µg/mL for two hours and then exposed to 200 ng/mL of LPS for twenty-four hours under standard culture conditions. Thereafter, the cells were washed twice with PBS, followed by the addition of 100 µL of fresh FBS-free medium containing 10 µM of the fluorescent probe 2′,7′-dichlorodihydrofluorescein diacetate (DCFH-DA) (Sigma-Aldrich, Darmstadt, Germany). After 30 min of additional incubation under usual culture conditions, PBS was added to the plate in place of the fluorescent probe. The fluorescence of the cells was measured using a SpectraMax iD3 multi-mode microplate reader (Molecular Devices, San Jose, CA, USA) at 485 nm (excitation) and 535 nm (emission). The percentage of cells treated with DMSO 0.5% without LPS, known as the negative control, was used to express the intracellular ROS levels. Using an excitation/emission filter (480/535 nm) on a 40× objective, images were taken with a camera (Flexacam C1, Leica Microsystems, Wetzlar, Germany) attached to a fluorescence microscope (Leica Microsytems GmbH, Wetzlar, Germany).

[6] = system: LPS-stimulated RAW264.7 cells; set-up: method as in PMID 33202848, PMID 29471006; conditions: cited from earlier work
soybeans 15-LOX = molecular target: T1, soybeans 15-LOX (Glycine max, UniProt P08170); assay: 15-lipoxygenase enzyme inhibitory assay (FOX); type: biochemical, soybean
T1 construct: purchased Merck, Darmstadt, Germany
T1 sequence (P08170 1-839): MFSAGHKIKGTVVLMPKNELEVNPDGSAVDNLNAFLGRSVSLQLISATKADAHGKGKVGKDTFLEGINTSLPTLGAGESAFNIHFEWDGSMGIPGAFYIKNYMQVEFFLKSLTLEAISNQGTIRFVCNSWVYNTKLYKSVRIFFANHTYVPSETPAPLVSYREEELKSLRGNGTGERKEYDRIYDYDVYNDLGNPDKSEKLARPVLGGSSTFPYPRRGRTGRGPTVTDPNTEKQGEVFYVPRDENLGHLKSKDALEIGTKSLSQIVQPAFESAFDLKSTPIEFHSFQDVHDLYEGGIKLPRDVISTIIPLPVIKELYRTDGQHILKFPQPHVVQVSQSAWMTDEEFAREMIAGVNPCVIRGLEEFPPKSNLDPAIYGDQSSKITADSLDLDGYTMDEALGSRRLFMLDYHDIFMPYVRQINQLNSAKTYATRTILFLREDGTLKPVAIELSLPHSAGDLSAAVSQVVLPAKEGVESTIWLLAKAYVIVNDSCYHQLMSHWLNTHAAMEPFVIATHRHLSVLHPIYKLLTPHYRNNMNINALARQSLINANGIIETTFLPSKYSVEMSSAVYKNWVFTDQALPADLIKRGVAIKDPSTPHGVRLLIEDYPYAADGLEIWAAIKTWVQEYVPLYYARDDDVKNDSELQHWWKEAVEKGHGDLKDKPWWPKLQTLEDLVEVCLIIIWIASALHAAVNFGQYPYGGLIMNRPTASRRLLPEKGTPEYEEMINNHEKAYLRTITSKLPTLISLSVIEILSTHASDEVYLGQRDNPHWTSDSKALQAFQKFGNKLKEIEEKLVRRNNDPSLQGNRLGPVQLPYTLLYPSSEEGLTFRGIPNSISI
Experimental: The method developed by Pinto et al. was used to determine the effect of the tested samples on 15-LOX inhibitory activity, with slight modifications to the 96-well microtitre plate format. Using 20 µL of tested samples at varying concentrations (3.90 to 500 µg/mL), the soybeans 15-LOX (Merck, Darmstadt, Germany) (40 µL, 200 UI/mL) were incubated at 25 °C for 5 min. The plate was then incubated at 25 °C for 20 min in the dark; after, 40 µL of linoleic acid (final concentration, 140 μM) produced in Tris-HCl buffer (50 mM, pH 7.4) was added. A total of 100 µL of the FOX reagent—sulfuric acid (30 mM), xylenol orange (100 μM), and ferrous II) sulfate (100 μM) mixed in methanol/water (9:1)—was added to terminate the test. A SpectraMax iD3 multi-mode microplate reader (Molecular Devices, San Jose, CA, USA) was used to measure the absorbance at 560 nm following 30 min of incubation at 25 °C in the dark. Gallic acid (0.78 to 100 µg/mL) was employed as the usual inhibitor of 15-LOX, while DMSO at 5% (v/v) served as the negative control. With the exception of adding the substrate after the FOX reagent, the blanks were prepared exactly like the tested samples. Formula (2) below was used to compute the 15-LOX inhibitory activity. 15 LOX inhibitory activity (%) = 100 − [(A0 − A1) − (A2 − A1)] × 100(2) where A0 is absorbance of test samples, A1 is absorbance of blank, and A2 is absorbance of negative control (DMSO 5%).
as §2

[7] = system: LPS-stimulated RAW 264.7 cells; assay: NO production inhibition in LPS-stimulated RAW 264.7 cells (Griess); type: cell-based, murine; conditions: Mus musculus, RAW264.7; RAW 264.7, 2 h pre-treatment, 500 ng/mL LPS 24 h
Experimental: […] in a humidified environment containing 5% CO2 and 95% air. For NO and ROS production inhibition assays, the cytotoxic effect of tested samples at 100 µg/mL after 24 h of exposure was initially measured on RAW 264.7 cells (10,000 cells per well) using the standard MTT assay. Then, for NO production inhibition assay, RAW 264.7 cells were pre-treated with tested samples at 100 µg/mL for 2 h followed by addition of culture medium containing 500 ng/mL of lipopolysaccharide (LPS) (Merck, Darmstadt, Germany). After 24 h of incubation under standard cell-culture conditions, NO released was measured in cell supernatants using the Griess reagent (Sigma Aldrich, Darmstadt, Germany), and a SpectraMax iD3 multi-mode microplate reader (Molecular Devices, San Jose, CA, USA) was used to capture the absorbance readings at 540 nm. The ability of each tested material to reduce nitric oxide synthesis by LPS-stimulated RAW 264.7 macrophages in comparison to the negative control (cells treated with DMSO at 0.5% and LPS without extract) was used to calculate the percentage of NO production inhibition.
as §2

[8] = system: prostaglandins, iNOS, pro-inflammatory cytokines, ROS, NF-κB signaling pathway; set-up: method as in PMID 35140617, PMID 32115816; conditions: down-regulation of prostaglandins; cited from earlier work

SMILES: O=c1cc(-c2ccc(O)cc2)oc2cc(O[C@@H]3O[C@H](CO)[C@@H](O)[C@H](O)[C@H]3O[C@@H]3OC[C@](O)(CO)[C@H]3O)cc(O)c12 [Apiin]
- Inhibitory activity on NO production and iNOS expression [1]: significant inhibitory activity

SMILES: O=C1O[C@H]([C@@H](O)CO)C(O)=C1O [Ascorbic acid, reference compound]
- IC50 DPPH [2]: 4.08 ± 1.04 µg/mL (≈ 23.2 µM)
- IC50 ABTS [3]: 1.28 ± 0.81 µg/mL (≈ 7.27 µM)
- IC50 FRAP [4]: 23.68 ± 2.89 µg/mL (≈ 134 µM)
- Inhibition of LPS-induced ROS production [5]: significantly inhibit

SMILES: C[C@@H]1O[C@@H](O[C@H]2C(=O)c3c(O)cc(O)cc3O[C@@H]2c2ccc(O)c(O)c2)[C@H](O)[C@H](O)[C@H]1O [Astilbin]
- Inhibition of IL-1β, IL-6, NO production and NF-κB-p65 expression [6]: significantly inhibiting

SMILES: O=C(O)c1cc(O)c(O)c(O)c1 [Gallic acid, reference compound]
- IC50 (soybeans 15-LOX): 145 µM

SMILES: O=c1c(O)c(-c2ccc(O)c(O)c2)oc2cc(O)cc(O)c12 [Quercetin, reference compound]
- IC50 [7]: 8.93 ± 0.4 µg/mL (≈ 29.5 µM)

SMILES: O=c1c(-c2ccc(O)cc2)coc2cc(O)cc(O)c12 [genistein]
- Anti-inflammatory activities [8]: strong anti-inflammatory activities
